Test results reported in patent US8791132B2, “Compounds and methods for treatment of hypertension” (Medivation Technologies, Inc., priority 2011, dated 2014).
Read-outs that look alike come from different tables or passages of the source. Blank lines part the entries; values can stand above or below the molecule they belong to.

Key:
[1] = biological target: T1, rat adrenergic α1B receptor (Rattus norvegicus, UniProt P15823); assay: Radioligand binding, adrenergic α1B ([3H]Prazosin)
T1 construct: rat adrenergic α1B receptor obtained from Wistar Rat liver; from tissue; host or cells: Wistar rat liver
T1 sequence (P15823 1-515): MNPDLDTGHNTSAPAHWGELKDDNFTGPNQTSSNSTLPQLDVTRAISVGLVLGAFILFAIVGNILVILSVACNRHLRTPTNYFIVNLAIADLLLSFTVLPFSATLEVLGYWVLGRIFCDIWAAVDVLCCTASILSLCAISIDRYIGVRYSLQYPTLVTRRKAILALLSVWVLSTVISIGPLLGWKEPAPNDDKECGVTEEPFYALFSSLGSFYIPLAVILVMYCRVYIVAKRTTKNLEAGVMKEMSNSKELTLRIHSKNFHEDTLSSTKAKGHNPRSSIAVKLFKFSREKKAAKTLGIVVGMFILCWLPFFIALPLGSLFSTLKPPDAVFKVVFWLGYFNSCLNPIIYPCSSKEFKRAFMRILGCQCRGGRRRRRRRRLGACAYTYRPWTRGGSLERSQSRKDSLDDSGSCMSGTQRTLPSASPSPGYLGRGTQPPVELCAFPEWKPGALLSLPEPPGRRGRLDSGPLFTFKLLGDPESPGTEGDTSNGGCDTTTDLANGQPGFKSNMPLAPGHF
Protocol: To evaluate in radioligand binding assays the activity of compounds of the invention, rat adrenergic α1B receptor obtained from Wistar Rat liver (Garcia-S'ainz, J. et al, Biochem. Biophys. Res. Commun. 186:760, 1992; Michel, A. et al, Br. J. Pharmacol. 98:883, 1989) in a modified Tris-HCl buffer (50 mM Tris-HCl buffer, pH 7.4, 0.5 mM EDTA) was used. Compounds of the invention were incubated with 0.25 nM [^3H]Prazosin for 60 min at 25° C. Non-specific binding was estimated in the presence of 10 μM phentolamine. Receptor proteins were filtered and washed, the filters were then counted to determine [^3H]Prazosin specifically bound. […] Compounds of the invention were tested in this biochemical assay and percent inhibition of specific binding was determined. Biochemical assay results are presented as the percent inhibition of specific binding in Table B1.

[2] = biological target: T2, human recombinant adrenergic α2B receptor (Homo sapiens, UniProt P18089); assay: Radioligand binding, adrenergic α2B ([3H]Rauwolscine); settings: for Percentage inhibition of ligand binding, Adrenergic α2B / Percentage inhibition of ligand binding, Adrenergic α2B (0.03 μM): 0.03 µM
T2 construct: expressed in transfected cells; host or cells: CHO-K1
T2 sequence (P18089 1-450): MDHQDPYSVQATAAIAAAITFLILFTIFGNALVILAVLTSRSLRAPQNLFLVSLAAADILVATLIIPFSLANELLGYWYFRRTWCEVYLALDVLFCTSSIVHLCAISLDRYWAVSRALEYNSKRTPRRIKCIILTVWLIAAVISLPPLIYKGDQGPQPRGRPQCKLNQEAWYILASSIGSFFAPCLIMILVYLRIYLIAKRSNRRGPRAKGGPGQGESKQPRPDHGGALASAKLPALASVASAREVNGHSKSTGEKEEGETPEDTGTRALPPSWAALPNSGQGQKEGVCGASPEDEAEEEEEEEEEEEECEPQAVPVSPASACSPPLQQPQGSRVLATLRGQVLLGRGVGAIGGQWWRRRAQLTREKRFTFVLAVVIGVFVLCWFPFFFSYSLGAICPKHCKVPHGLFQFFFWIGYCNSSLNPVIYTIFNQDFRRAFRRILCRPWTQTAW
Protocol: To evaluate in radioligand binding assays the activity of compounds of the invention, human recombinant adrenergic α2B receptor expressed in Chinese hamster ovary (CHO) K1 cells (Uhlen, S. et al, Eur. J. Pharmacol. 343(1):93, 1998) in a modified Tris-HCl buffer (50 mM Tris-HCl, pH 7.4, 12.5 mM MgCl2, 1 mM EDTA, 0.2% BSA) was used. Compounds of the invention were incubated with 2.5 nM [3H]Rauwolscine for 60 min at 25° C. Non-specific binding was estimated in the presence of 10 μM Prazosin. Receptor proteins were filtered and washed, the filters were then counted to determine [3H]Rauwolscine specifically bound. […] Compounds of the invention were tested in this biochemical assay and percent inhibition of specific binding was determined. Biochemical assay results are presented as the percent inhibition of specific binding in Table B1.

[3] = biological target: T3, human recombinant adrenergic α2A receptor (Homo sapiens, UniProt P08913); assay: Radioligand binding, adrenergic α2A ([3H]MK-912)
T3 construct: expressed in transfected cells; host or cells: insect Sf9 cells
T3 sequence (P08913 1-465): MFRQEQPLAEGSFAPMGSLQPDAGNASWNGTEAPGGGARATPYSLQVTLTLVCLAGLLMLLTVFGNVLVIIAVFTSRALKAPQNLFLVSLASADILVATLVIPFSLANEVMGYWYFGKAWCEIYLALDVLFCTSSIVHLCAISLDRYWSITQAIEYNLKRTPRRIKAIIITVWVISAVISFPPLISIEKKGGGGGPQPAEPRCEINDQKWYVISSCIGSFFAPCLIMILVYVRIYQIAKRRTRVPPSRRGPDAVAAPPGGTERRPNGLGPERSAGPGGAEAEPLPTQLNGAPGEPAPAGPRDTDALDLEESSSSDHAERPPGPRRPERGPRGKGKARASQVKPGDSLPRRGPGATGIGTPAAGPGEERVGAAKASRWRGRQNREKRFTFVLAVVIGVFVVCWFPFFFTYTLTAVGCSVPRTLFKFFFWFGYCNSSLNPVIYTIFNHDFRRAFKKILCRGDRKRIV
Protocol: To evaluate in radioligand binding assays the activity of compounds of the invention, human recombinant adrenergic α2A receptor expressed in insect Sf9 cells (Uhlen, S. et al, J. Pharmacol. Exp. Ther. 271:1558, 1994) in a modified Tris-HCl buffer (50 mM Tris-HCl, pH 7.4, 12.5 mM MgCl2, 2 mM EDTA) was used. Compounds of invention were incubated with 1 nM [^3H]MK-912 for 60 min at 25° C. MK912 is (2S-trans)-1,3,4,5′,6,6′,7,12b-octahydro-1′,3′-dimethyl-spiro[2H-benzofuro[2,3-a]quinolizine-2,4′(1′H)-pyrimidin]-2′(3′H)-one hydrochloride. Non-specific binding was estimated in the presence of 10 μM WB-4101 (2-(2,6-Dimethoxyphenoxyethyl)aminomethyl-1,4-benzodioxane hydrochloride). Receptor proteins were filtered and washed, the filters were then counted to determine [^3H]MK-912 specifically bound. […] Compounds of the invention were tested in this biochemical assay and percent inhibition of specific binding was determined. Biochemical assay results are presented as the percent inhibition of specific binding in Table B1.

[4] = compound at 0.1 μM, [3H]Prazosin, repeat assays, each datapoint shown, read-out: Percentage inhibition of ligand binding, Adrenergic α1B
[5] = compound at 0.03 μM, [3H]Rauwolscine, repeat assays, each datapoint shown, read-out: Percentage inhibition of ligand binding, Adrenergic α2B
[6] = compound at 0.1 μM, [3H]MK-912, repeat assays, each datapoint shown, read-out: Percentage inhibition of ligand binding, Adrenergic α2A
[7] = compound at 0.1 μM, [3H]Prazosin, repeat assays, each datapoint shown, 0.1 µM
[8] = compound at 0.03 μM, [3H]Rauwolscine, repeat assays, each datapoint shown
[9] = compound at 0.1 μM, [3H]MK-912, repeat assays, each datapoint shown, 0.1 µM
[10] = compound at 0.1 μM, [3H]Prazosin, repeat datapoints each shown, 0.1 µM
[11] = compound at 0.03 μM, [3H]Rauwolscine, repeat datapoints each shown
[12] = compound at 0.1 μM, [3H]MK-912, repeat datapoints each shown, 0.1 µM
[13] = read-out: Percentage inhibition of ligand binding, Adrenergic α2B (0.03 μM), compound at 0.03 μM, [3H]Rauwolscine, repeat datapoints each shown
[14] = read-out: Percentage inhibition of ligand binding, Adrenergic α1B (0.1 μM), compound at 0.1 μM, [3H]Prazosin, repeat datapoints each shown
[15] = read-out: Percentage inhibition of ligand binding, Adrenergic α2A (0.1 μM), compound at 0.1 μM, [3H]MK-912, repeat datapoints each shown

SMILES: OC(Cn1c2c(c3cccnc31)CN1CCCC1C2)c1ccncc1 (single isomer, unassigned) [37b]
Percentage inhibition of ligand binding, Adrenergic α1B [1, 7]: −10%
Percentage inhibition of ligand binding, Adrenergic α2B [2, 8]: −3%
Percentage inhibition of ligand binding, Adrenergic α2A [3, 9]: −20%

SMILES: Cc1ccc2c(c1)c1c(n2CC(C)(O)c2cccnc2)CCNC1 (single isomer, unassigned) [24b]
Percentage inhibition of ligand binding, Adrenergic α1B ([1]; compound at 0.1 μM, [3H]Prazosin, repeat assays, each datapoint shown): 8%
Percentage inhibition of ligand binding, Adrenergic α2B [2, 8]: 29%
Percentage inhibition of ligand binding, Adrenergic α2A [3, 9]: 15%

SMILES: Cc1ccc2c(c1)c1c(n2CC(C)(OC(=O)C(C)C)c2cccnc2)CCN(C)C1 (single isomer, unassigned) [146b]
Percentage inhibition of ligand binding, Adrenergic α1B (0.1 μM) [1, 10]: 11%
Percentage inhibition of ligand binding, Adrenergic α2B (0.03 μM) [2, 11]: 63%
Percentage inhibition of ligand binding, Adrenergic α2A (0.1 μM) [3, 12]: 21%

SMILES: Cc1cnc2c(c1)c1c(n2CCc2ccc(C)nc2)CCN2CCCCC12 (single isomer, unassigned) [IV-8a]
Percentage inhibition of ligand binding, Adrenergic α1B (0.1 μM) [1, 10]: 49%
inhibition at 0.03 µM [2, 13]: 4%
Percentage inhibition of ligand binding, Adrenergic α2A (0.1 μM) [3, 12]: 7%

SMILES: Cc1ccc2c(c1)c1c(n2CC(N)c2ccncc2)CCN(C)CC1 (single isomer, unassigned) [154a, 2-(3,9-dimethyl-2,3,4,5-tetrahydroazepino[4,5-b]indol-6(1H)-yl)-1-(pyridin-4-yl)ethanamine]
Percentage inhibition of ligand binding, Adrenergic α1B (0.1 μM) [1, 10]: 39%
Percentage inhibition of ligand binding, Adrenergic α2B (0.03 μM) [2, 11]: 31%
Percentage inhibition of ligand binding, Adrenergic α2A (0.1 μM) [3, 12]: 4%

SMILES: Cc1ccc2c(c1)c1c(n2CC(O)c2ccncc2)CCN2CCCCC12 (single isomer, unassigned) [47b]
Percentage inhibition of ligand binding, Adrenergic α1B [1, 7]: 70%
Percentage inhibition of ligand binding, Adrenergic α2B [2, 8]: 119%
Percentage inhibition of ligand binding, Adrenergic α2A [3, 9]: 41%

SMILES: Cc1ccc2c(c1)c1c(n2CC(O)c2cn[nH]c2)CCN(C)C1 (single isomer, unassigned) [II-106b]
Percentage inhibition of ligand binding, Adrenergic α1B (0.1 μM) [1, 10]: 31%
Percentage inhibition of ligand binding, Adrenergic α2A (0.1 μM) [3, 12]: 8%

SMILES: Cc1ccc2c(c1)c1c(n2C(C)C(O)c2ccncc2)CCN(C)C1 (stereo not drawn) [II-98a]
Percentage inhibition of ligand binding, Adrenergic α1B ([1]; 0.1 μM compound): 33%
inhibition at 0.1 µM ([3]; 0.1 μM compound, read-out: Percentage inhibition of ligand binding, Adrenergic α2A): 12%

SMILES: Cc1ccc2c(c1)c1c(n2CC(O)c2ccc(C(=O)N(C)C)cc2)CCN(C)C1 (single isomer, unassigned) [52b]
Percentage inhibition of ligand binding, Adrenergic α1B [1, 7]: 73%
Percentage inhibition of ligand binding, Adrenergic α2A [3, 9]: 29%

Now from value to molecule:

Percentage inhibition of ligand binding, Adrenergic α1B ([1]; 0.1 μM compound, 0.1 µM): 61%
inhibition at 0.03 µM ([2]; 0.03 μM compound, read-out: Percentage inhibition of ligand binding, Adrenergic α2B): 47%
Percentage inhibition of ligand binding, Adrenergic α2A ([3]; 0.1 μM compound, 0.1 µM): 7%
SMILES: CC(=O)OC(C)(Cn1c2c(c3cc(C)ccc31)CN(C)CC2)c1cccnc1 (single isomer, unassigned) [II-15a, acetic acid 2-(2,8-dimethyl-1,2,3,4-tetrahydro-pyrido[4,3-b]indol-5-yl)-1-methyl-1-pyridin-3-yl-ethyl ester]

inhibition at 0.1 µM [1, 4]: 49%
inhibition at 0.03 µM [2, 5]: 81%
inhibition at 0.1 µM [3, 6]: 12%
SMILES: C/C(=C/n1c2c(c3cc(C)ccc31)CN(C)CC2)c1cn[nH]c1 [compound 80]

inhibition at 0.1 µM [1, 14]: 34%
inhibition at 0.03 µM [2, 13]: 72%
inhibition at 0.1 µM [3, 15]: 7%
SMILES: Cc1ccc2c(c1)c1c(n2CC(O)c2ncc[nH]2)CCN2CCCC12 (stereo not drawn) [II-139, 1-(1H-imidazol-2-yl)-2-(10-methyl-2,3,5,6-tetrahydro-1H-indolizino[7,8-b]indol-7(11cH)-yl)ethanol]

inhibition at 0.1 µM [1, 4]: 4%
inhibition at 0.03 µM [2, 5]: 10%
inhibition at 0.1 µM [3, 6]: 11%
SMILES: Cc1ccc2c(c1)c1c(n2CC(O)c2cc[n+]([O-])cc2)CCN(C)C1 (stereo not drawn) [69a]

inhibition at 0.1 µM ([1]; 0.1 μM compound, read-out: Percentage inhibition of ligand binding, Adrenergic α1B): 13%
Percentage inhibition of ligand binding, Adrenergic α2A ([3]; 0.1 μM compound, 0.1 µM): 37%
SMILES: CN1CCc2c(n(CC(O)c3ccc(F)c(F)c3)c3ccc(Cl)cc23)CC1 (single isomer, unassigned) [339a]

inhibition at 0.1 µM [1, 14]: 7%
inhibition at 0.1 µM [3, 15]: 5%
SMILES: Cc1ccc2c(c1)c1c(n2CC(c2ccncc2)N(C)C)CCN(C)C1 (stereo not drawn) [150b]

Percentage inhibition of ligand binding, Adrenergic α1B (0.1 μM) [1, 10]: 5%
Percentage inhibition of ligand binding, Adrenergic α2A (0.1 μM) [3, 12]: 8%
SMILES: Cc1ccc2c(c1)c1c(n2CC(C)(O)c2cccnc2)CCN(C)C1C (single isomer, unassigned) [II-152d]

Percentage inhibition of ligand binding, Adrenergic α1B [1, 7]: 9%
Percentage inhibition of ligand binding, Adrenergic α2A [3, 9]: 5%
SMILES: Cc1ccc2c(c1)c1c(n2CC(O)c2ccc(C(=O)N(C)C)cc2)CCN(C)C1 (single isomer, unassigned) [52a]

Percentage inhibition of ligand binding, Adrenergic α1B (0.1 μM) ([1]; compound at 0.1 μM, [3H]Prazosin, repeat datapoints each shown): 65%
Percentage inhibition of ligand binding, Adrenergic α2A (0.1 μM) ([3]; compound at 0.1 μM, [3H]MK-912, repeat datapoints each shown): 6%
SMILES: Cc1ccc2c(c1)c1c(n2CC(C)(O)c2ccncc2)CCN(C)CC1 (stereo not drawn) [II-134b]

inhibition at 0.1 µM [1, 14]: 73%
inhibition at 0.1 µM [3, 15]: 46%
SMILES: Cc1ccc2c(c1)c1c(n2CC(O)c2ccncc2)CCN2CCCC12 (stereo not drawn) [129a]
